Counter-ions that a name gives are not always drawn.
Assays:
Assay type in all cases: biochemical
Details in all cases: 100 uM ATP, 3 hr incubation, four-parameter fit
CLK2 = target: T1, CLK2 (Homo sapiens, UniProt P49760); assay: Phosphorylation assay ([γ-32P]-ATP, P81 paper), CLK2
T1 construct: purchased SignalChem
Excerpt: (§1) Kinase activity and inhibition can be measured using binding assays as well as phosphorylation assays. In the binding assays, e.g. KinaseSeeker (Luceome Biotechnologies, Tucson, Ariz.) or Kinomescan (Eurofins), the competitive displacement of a kinase active site binding probe by a compound is detected and serves as a measure of compound inhibition. In phosphorylation assays, e.g. radioactivity assays or ADP-Glo (Promega) assays, the phosphorylation of a peptide or protein substrate is used to evaluate enzyme activity, and the reduction of phosphorylation in presence of a compounds serves as a measure of compound inhibition. The inhibitor compounds described herein are screened in the following manner.
(§2) For phosphorylation assays, 30 ng of the active kinase (SignalChem) in kinase assay buffer was incubated with either inhibitor in DMSO or DMSO (no inhibitor control). Reaction was started by the addition of 10 mM magnesium sulfate, 100 uM [γ-^32P]-ATP and appropriate concentration of the relevant peptide substrate. After 3 hr incubation, the reaction was terminated by spotting 25 μl of the reaction mixture onto P81 paper strips. The paper strips were air dried, washed three times with 0.85% phosphoric acid and finally with acetone. The P81 paper was immersed in 10 mL of scintillation cocktail, and the radioactive counts were measured. For dose dependent curves, kinases were treated at varying concentrations of the compound in activity assays and IC50 values were determined using a four-parameter fit. The IC50 values against a select set of kinases is given below.

CLK1 = target: T2, CLK1 (Homo sapiens, UniProt P49759); assay: Phosphorylation assay ([γ-32P]-ATP, P81 paper), CLK1
T2 construct: purchased SignalChem
Excerpt: as §1, §2

NUAK2 = target: T3, NUAK2 (Homo sapiens, UniProt Q9H093); assay: Phosphorylation assay ([γ-32P]-ATP, P81 paper), NUAK2
T3 construct: purchased SignalChem
T3 sequence (Q9H093 1-628): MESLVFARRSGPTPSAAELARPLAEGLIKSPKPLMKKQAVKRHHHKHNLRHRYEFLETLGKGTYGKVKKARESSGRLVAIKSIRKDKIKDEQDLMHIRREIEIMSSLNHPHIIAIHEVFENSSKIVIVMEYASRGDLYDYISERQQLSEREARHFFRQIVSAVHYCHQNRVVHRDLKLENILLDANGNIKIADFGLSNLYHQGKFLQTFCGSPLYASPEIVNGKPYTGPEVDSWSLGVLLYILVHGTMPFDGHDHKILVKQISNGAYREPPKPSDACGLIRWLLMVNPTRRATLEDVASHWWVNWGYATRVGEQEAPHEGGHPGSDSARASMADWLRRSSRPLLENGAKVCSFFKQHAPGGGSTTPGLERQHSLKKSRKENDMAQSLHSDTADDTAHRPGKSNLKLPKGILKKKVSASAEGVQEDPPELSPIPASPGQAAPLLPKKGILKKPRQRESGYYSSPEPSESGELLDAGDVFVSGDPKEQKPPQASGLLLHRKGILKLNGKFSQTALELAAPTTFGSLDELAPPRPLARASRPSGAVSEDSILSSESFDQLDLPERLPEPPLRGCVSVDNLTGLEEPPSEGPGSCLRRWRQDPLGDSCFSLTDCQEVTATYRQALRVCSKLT
Excerpt: as §1, §2

SIK2 = target: T4, SIK2 (Homo sapiens, UniProt Q9H0K1); assay: Phosphorylation assay ([γ-32P]-ATP, P81 paper), SIK2
T4 construct: purchased SignalChem
Excerpt: as §1, §2

NUAK1 = target: T5, NUAK1 (Homo sapiens, UniProt O60285); assay: Phosphorylation assay ([γ-32P]-ATP, P81 paper), NUAK1
T5 construct: purchased SignalChem
T5 sequence (O60285 1-661): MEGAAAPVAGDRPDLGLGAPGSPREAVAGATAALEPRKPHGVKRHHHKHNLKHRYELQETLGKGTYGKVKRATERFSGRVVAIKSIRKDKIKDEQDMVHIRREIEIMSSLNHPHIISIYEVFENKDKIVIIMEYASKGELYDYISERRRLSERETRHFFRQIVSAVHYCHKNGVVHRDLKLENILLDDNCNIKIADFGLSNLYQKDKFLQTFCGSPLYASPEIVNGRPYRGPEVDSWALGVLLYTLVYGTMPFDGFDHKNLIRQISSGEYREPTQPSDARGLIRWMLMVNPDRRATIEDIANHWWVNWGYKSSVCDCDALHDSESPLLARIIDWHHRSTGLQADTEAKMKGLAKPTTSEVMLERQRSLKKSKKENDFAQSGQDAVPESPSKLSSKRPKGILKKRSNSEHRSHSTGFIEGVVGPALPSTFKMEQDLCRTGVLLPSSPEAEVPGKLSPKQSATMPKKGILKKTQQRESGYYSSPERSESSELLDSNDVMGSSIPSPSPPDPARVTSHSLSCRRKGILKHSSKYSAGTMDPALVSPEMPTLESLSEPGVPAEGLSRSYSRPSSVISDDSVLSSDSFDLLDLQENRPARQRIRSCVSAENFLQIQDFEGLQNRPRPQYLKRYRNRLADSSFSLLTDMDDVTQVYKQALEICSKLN
Excerpt: as §1, §2

T4 sequence (Q9H0K1 whole entry): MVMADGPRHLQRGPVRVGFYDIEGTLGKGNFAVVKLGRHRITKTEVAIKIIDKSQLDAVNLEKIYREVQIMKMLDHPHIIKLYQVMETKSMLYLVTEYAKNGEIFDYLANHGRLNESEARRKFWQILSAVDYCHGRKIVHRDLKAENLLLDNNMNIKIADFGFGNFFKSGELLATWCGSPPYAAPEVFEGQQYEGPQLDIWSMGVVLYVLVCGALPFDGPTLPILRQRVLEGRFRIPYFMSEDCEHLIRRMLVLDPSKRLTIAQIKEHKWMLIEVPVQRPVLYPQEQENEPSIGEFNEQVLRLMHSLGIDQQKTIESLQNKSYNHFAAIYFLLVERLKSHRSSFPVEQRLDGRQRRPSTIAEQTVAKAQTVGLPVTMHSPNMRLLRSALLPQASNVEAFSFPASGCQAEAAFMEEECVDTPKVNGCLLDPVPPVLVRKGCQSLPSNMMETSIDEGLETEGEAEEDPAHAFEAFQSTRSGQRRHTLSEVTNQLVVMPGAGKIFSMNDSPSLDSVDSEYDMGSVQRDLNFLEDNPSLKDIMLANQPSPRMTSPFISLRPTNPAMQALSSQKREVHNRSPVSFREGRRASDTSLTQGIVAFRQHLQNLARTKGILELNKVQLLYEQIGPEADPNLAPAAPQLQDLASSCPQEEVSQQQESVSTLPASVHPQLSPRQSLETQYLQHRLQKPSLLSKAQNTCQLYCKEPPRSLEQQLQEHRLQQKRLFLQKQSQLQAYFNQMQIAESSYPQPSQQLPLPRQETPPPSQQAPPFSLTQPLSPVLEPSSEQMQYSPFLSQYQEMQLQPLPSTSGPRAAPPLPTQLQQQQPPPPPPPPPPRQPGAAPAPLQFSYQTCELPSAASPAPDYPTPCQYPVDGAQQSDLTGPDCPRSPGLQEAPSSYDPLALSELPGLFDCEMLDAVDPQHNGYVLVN
T1 sequence (P49760 whole entry): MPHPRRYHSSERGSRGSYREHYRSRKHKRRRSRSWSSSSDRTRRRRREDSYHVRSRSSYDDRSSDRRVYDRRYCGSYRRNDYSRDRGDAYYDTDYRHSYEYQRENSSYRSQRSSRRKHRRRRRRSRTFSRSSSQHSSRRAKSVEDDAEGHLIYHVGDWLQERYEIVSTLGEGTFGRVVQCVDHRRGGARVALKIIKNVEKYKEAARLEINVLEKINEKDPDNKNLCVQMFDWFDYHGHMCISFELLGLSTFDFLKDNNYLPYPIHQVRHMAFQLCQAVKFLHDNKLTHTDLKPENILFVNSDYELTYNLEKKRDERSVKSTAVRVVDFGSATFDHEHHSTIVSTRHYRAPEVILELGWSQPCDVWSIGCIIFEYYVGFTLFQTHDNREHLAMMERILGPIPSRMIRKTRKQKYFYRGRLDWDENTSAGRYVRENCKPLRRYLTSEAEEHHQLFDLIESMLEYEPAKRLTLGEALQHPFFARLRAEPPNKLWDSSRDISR
T2 sequence (P49759 whole entry): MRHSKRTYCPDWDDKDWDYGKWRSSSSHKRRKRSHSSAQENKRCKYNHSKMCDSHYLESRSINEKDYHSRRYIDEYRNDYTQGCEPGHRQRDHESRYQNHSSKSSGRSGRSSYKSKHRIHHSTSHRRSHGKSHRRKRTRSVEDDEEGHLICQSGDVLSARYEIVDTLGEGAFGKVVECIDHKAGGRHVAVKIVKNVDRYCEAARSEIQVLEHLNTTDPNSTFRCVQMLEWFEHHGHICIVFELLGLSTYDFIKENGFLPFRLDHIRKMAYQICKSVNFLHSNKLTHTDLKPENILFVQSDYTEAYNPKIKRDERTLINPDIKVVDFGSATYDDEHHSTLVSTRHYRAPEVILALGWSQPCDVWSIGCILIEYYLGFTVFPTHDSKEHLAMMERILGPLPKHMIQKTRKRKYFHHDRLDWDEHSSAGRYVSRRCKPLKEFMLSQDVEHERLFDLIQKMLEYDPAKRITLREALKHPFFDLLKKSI

Row | SMILES | IC50 (CLK2) [µM] | IC50 (CLK1) [µM] | IC50 (NUAK2) [µM] | IC50 (SIK2) [µM] | IC50 (NUAK1) [µM]
1 | CN1Cc2ccccc2N(C)c2cc(Nc3ccn(C4CCNCC4)n3)ncc21 [Compound 14, 5,11-dimethyl-N-(1-(piperidin-4-yl)-1H-pyrazol-3-yl)-10,11-dihydro-5H-benzo[e]pyrido[3,4-b][1,4]diazepin-3-amine] | 1.5 | 2.7 | 4.6 | 18.6 | 1.3
2 | CN1Cc2cnc(Nc3ccn(C4CCNCC4)n3)cc2N(C)c2ccccc21 [Compound 24, 5,10-dimethyl-N-(1-(piperidin-4-yl)-1H-pyrazol-3-yl)-10,11-dihydro-5H-benzo[b]pyrido[4,3-e][1,4]diazepin-3-amine] | 9.5 | > 50 | 7 | 0.69 | 1.3
3 | CN1C(=O)c2ccccc2N(C)c2cc(Nc3ccn(C4CCNCC4)n3)ncc21 [Compound 30, 5,11-dimethyl-3-((1-(piperidin-4-yl)-H-pyrazol-3-yl)amino)-5,11-dihydro-10H-benzo[e]pyrido[3,4-b][1,4]diazepin-10-one TFA Salt] | 33 | 57.8 | 0.34 | 1.5 | 0.13
